Source: patent US9580430B2, “9H-pyrimido[4,5-B]indoles and related analogs as BET bromodomain inhibitors” (THE REGENTS OF THE UNIVERSITY OF MICHIGAN, priority 2014, dated 2017)

Key:
[1] = target: T1, recombinant BRD4 BD1 (Homo sapiens, UniProt O60885); experiment: Competitive fluorescence-polarization (FP) binding assay, BRD4 BD1; conditions: competitive FP assay; protein 10 nM, probe […]; read-out: IC50 (nM) BRD4 BD1; also: probe 1.5 nM
T1 construct: for recombinant BRD4 BD1 and BRD4 BD2 proteins
In short: (§1)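 Buffer: 100 mM potassium phosphate, pH 6.5, 0.01% Triton X-100; compounds added in buffer with 40% ethylene glycol to preformed complex of fluorescent probe with BRD4 BD1 (10 nM final) or BD2 (6 nM final). After 30 min at room temperature, polarization read. IC50 from nonlinear fits of competition curves, with Ki.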

[2] = target: T2, recombinant BRD4 BD2 (Homo sapiens, UniProt O60885); experiment: Competitive fluorescence-polarization (FP) binding assay, BRD4 BD2; conditions: competitive FP assay; protein 6 nM, probe […]; read-out: IC50 (nM) BRD4 BD2; also: probe 1.5 nM
T2 construct: for recombinant BRD4 BD1 and BRD4 BD2 proteins
In short: as §1

[3] = system: MOLM-13; experiment: Cell growth inhibition, MOLM-13 leukemia cells (CellTiter-Glo); assay type: cell-based; conditions: Homo sapiens, MOLM-13, 96 h; 4 days; read-out: IC50 (nM) MOLM-13 Cell Line (CellTiter-Glo assay)
In short: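 Luminescent ATP-based viability (CellTiter-Glo, 10-20 min at room temperature) in compound-treated MOLM-13 cells; the half-maximal inhibitory concentration was calculated from the readout.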

[4] = system: MDA-MB-436; experiment: Cell growth inhibition, MDA-MB-436 breast cancer cells (WST-8); assay type: cell-based; conditions: Homo sapiens, MDA-MB-436, 96 h; 4 days; read-out: IC50 (nM) MDA-MB-436 Cell Line (WST assay)
In short: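 IC50 was computed from WST-8-based cell counting in MDA-MB-436 cells, with absorbance read at 450 nm.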

Structure (SMILES) | IC50 [1] | IC50 [2] | IC50 [3] | IC50 [4]
COc1cc2c(cc1-c1c(C)noc1C)[nH]c1nc(C)nc(Nc3nn(C)c4ccc(Cl)cc34)c12 [Cpd. No. 13, N-(5-Chloro-1-methyl-1H-indazol-3-yl)-7-(3,5-dimethylisoxazol-4-yl)-6-methoxy-2-methyl-9H-pyrimido[4,5-b]indol-4-amine] | > 1000 nM | > 1000 nM | 108 nM | 1080 nM
COc1cc2c(cc1-c1c(C)noc1C)[nH]c1nc(C)nc(Nc3cccc4ccncc34)c12 [Cpd. No. 223, 7-(3,5-dimethylisoxazol-4-yl)-N-(isoquinolin-8-yl)-6-methoxy-2-methyl-9H-pyrimido[4,5-b]indol-4-amine] | 47 nM | 55 nM | 115 nM | 152 nM
COc1cc2c(cc1-c1c(C)noc1C)[nH]c1nc(C)nc(Nc3cn(C)nc3C)c12 [Cpd. No. 34, N-(1,3-dimethyl-1H-pyrazol-4-yl)-7-(3,5-dimethylisoxazol-4-yl)-6-methoxy-2-methyl-9H-pyrimido[4,5-b]indol-4-amine] | 30.2 nM | 28.7 nM | 32.7 nM | 97.6 nM
COc1cc2c(cc1-c1c(C)noc1C)[nH]c1nc(C)nc(Nc3cn(C)nc3C(C)(C)O)c12 [compound 269, 2-(4-(7-(3,5-dimethylisoxazol-4-yl)-6-methoxy-2-methyl-9H-pyrimido[4,5-b]indol-4-ylamino)-1-methyl-1H-pyrazol-3-yl)propan-2-ol] | 21.9 nM | 35.1 nM | 97.4 nM | 154 nM
COc1cc2c(cc1-c1c(C)noc1C)[nH]c1nc(C)nc(Nc3nn(CCO)c4ccccc34)c12 [Cpd. No. 131, 2-(3-((7-(3,5-Dimethylisoxazol-4-yl)-6-methoxy-2-methyl-9H-pyrimido[4,5-b]indol-4-yl)amino)-1H-indazol-1-yl)ethanol] | 9.6 nM | 51.4 nM | 32.7 nM | 97.6 nM
COc1cc2c(cc1-c1c(C)noc1C)[nH]c1ccnc(Nc3cc(C4CC4)nn3C)c12 [Cpd. No. 255, N-(3-cyclopropyl-1-methyl-1H-pyrazol-5-yl)-7-(3,5-dimethylisoxazol-4-yl)-8-methoxy-5H-pyrido[4,3-b]indol-1-amine] | 10.5 nM | 8.5 nM | 12 nM | 26 nM
COc1cc2c(cc1-c1c(C)noc1C)[nH]c1nc(C)nc(Nc3ccc(F)c(Cl)c3)c12 [Cpd. No. 107, N-(3-chloro-4-fluorophenyl)-7-(3,5-dimethylisoxazol-4-yl)-6-methoxy-2-methyl-9H-pyrimido[4,5-b]indol-4-amine] | 92 nM | 33 nM | 8 nM | 229 nM
CCn1nccc1Nc1nc(C)nc2[nH]c3cc(-c4c(C)noc4C)c(OC)cc3c12 [Cpd. No. 173, 7-(3,5-dimethylisoxazol-4-yl)-N-(1-ethyl-1H-pyrazol-5-yl)-6-methoxy-2-methyl-9H-pyrimido[4,5-b]indol-4-amine] | 31.7 nM | 25.1 nM | 121 nM | 198 nM
COc1cc2c(cc1-c1c(C)noc1C)[nH]c1nc(C)nc(Nc3cccc(C)c3)c12 [Cpd. No. 212, 7-(3,5-dimethylisoxazol-4-yl)-6-methoxy-2-methyl-N-m-tolyl-9H-pyrimido[4,5-b]indol-4-amine] | 18 nM | 8 nM | 103 nM | 112 nM
COc1cc2c(cc1-c1c(C)noc1C)[nH]c1nc(C)nc(Nc3ncnn3C(C)C)c12 [Cpd. No. 29, 7-(3,5-dimethylisoxazol-4-yl)-N-(1-isopropyl-1H-1,2,4-triazol-5-yl)-6-methoxy-2-methyl-9H-pyrimido[4,5-b]indol-4-amine] | > 1000 nM | > 1000 nM | 82.1 nM | 1110 nM
